Results taken from US12618847B2 (Purdue Research Foundation, priority 2020, dated 2026).
“Also recorded” adds a separate entry of the source. Read-outs that look alike come from different tables or passages of the source. Each block holds one compound with its values, some of them ahead of it. *1 amine or outer side, *2 acyl side, *3 side chain or, on linkers, in order; H or OH if unused. Where a SMILES comes first, the peptide text is derived from it. Where no end group is shown, it is not given here. [ ]: non-standard residue; d: D form. The star is where a group is joined. Phe(4-NO2) = N[C@@H](Cc1ccc([N+](=O)[O-])cc1)C(=O)O; Phe(4-Cl) = N[C@@H](Cc1ccc(Cl)cc1)C(=O)O; 2Thi = N[C@@H](Cc1cccs1)C(=O)O; AMC = Cc1cc(=O)oc2cc(N*)ccc12; Suc = O=C(CCC(=O)[*:2])[*:1]; Nva = CCC[C@H](N)C(=O)O; Cbz = O=C(OCc1ccccc1)*

Legend:
20S CP [1] = target: T1, 20S CP (Homo sapiens, UniProt P20618+P28074); assay: LC/MS assay of peptide library as 20S CP substrates; assay type: biochemical; conditions: 12 μM peptide, 9 nM 20S CP, 37° C., one hour
Description: To evaluate this set of peptides as potential 20S CP substrates, we applied a similar LC/MS-based assay to that used to discover the immunoproteasome probe. Briefly, the peptides were dissolved in DMSO at a stock concentration of 600 μM. The peptides were then diluted in 50 mM tris buffer, pH 7.4, in a 96-well plate for a final assay concentration of 12 μM in two sets of triplicates. One set of triplicates served as a negative control, incubated in tris buffer alone. For analysis, this would correspond to the ionization intensity of completely intact samples, which can then be compared to the amount of intact peptide remaining in 20S CP-treated samples. To the other triplicate was added 20S CP to a final concentration of 9 nM. All samples were incubated at 37° C. for one hour before an equal volume of acetonitrile was added to halt degradation by denaturing the 20S CP. Samples were dried, resuspended in 50/50 water/acetonitrile with 0.1% formic acid and analyzed by LC/MS (example spectra can be found in Supporting Information Appendix B).
For each peptide, the mass of the full (uncleaved) structure was extracted (extracted ion chromatogram, EIC) from each sample and this peak was integrated to obtain the peak area. The peak areas for the negative control samples of individual structures were averaged and set to 1. Peak areas for 20S CP-treated samples were then scaled to the average for the untreated sample and the triplicates averaged to obtain a value for the fraction of full peptide remaining (FIG. 4). To confirm that the peptide was being cleaved at the desired position, the mass of the corresponding 4mer-peptide cleavage product was found in each 20S CP-treated sample with significant decrease in full peptide observed.

MM.1R = assay: Cell viability by Cell-Titer Glo; assay type: cell-based; conditions: 48 hours
Description: (§1) We also sought to correlate this proteasome activity trend with susceptibility to a proteasome inhibitor by determining the IC50 values of MG-132 with these six cells. Cells were dosed for 48 hours with increase concentrations of MG-132 then analyzed using Cell-Titer Glo to determine cell viability. […] Considering this, we still believe comparing cell lines for proteasome activity based on fluorescence with TAS2 would still provide insight to the relative dependency of various cancer cell lines on proteasome activity.

[2] = test system: A498, SK-MEL-2, MEL-92.1, SH-SY5Y and HEK293T cell lines; assay: Cell viability by Cell-Titer Glo; assay type: cell-based; conditions: remaining cell lines, 48 hours
Description: as §1

A549 cells = assay: Probe cleavage in live A549 cells with or without MG-132 pretreatment; assay type: cell-based; conditions: MG-132 10 μM pre-incubated one hour, each TAS probe at 10 μM
Description: We next sought to determine if the TAS probes would be suitable for cell-based assays. To accomplish this, A549 cells were plated at a density of 5,000 cells/well in a black 96 well plate with a black bottom. After allowing the cells to adhere to the plate, the samples were washed with PBS three times then dosed with 10 μM of each probe in modified KRBH buffer. The change in fluorescence was recorded on a microplate reader for 90 min. After allowing the signal to equilibrate for […], each sample was set to zero and the future time points were scaled accordingly. As was done with the biochemical data, a linear regression was fit to each set of data. From the slope, it is observed that the rate for TAS2 was the highest. To determine the in-cell selectivity, a set of samples pretreated with MG-132 (10 μM), a proteasome inhibitor, was included for each probe. These samples were pre-incubated with MG-132 in cell culture media for one hour before washing with PBS and dosing with each probe in modified KRBH buffer. […] To ensure this decrease was not a consequence of cell death, cells were treated in the same way and analyzed using Cell-Titer Glo.

[3] = Human serum stability of library peptides by LC/MS; assay type: in vitro ADME; conditions: 20S CP one hour vs 10% human serum 10 min
Text: This is supported by when we first optimized conditions for treating the peptides with human serum using Tyr-containing peptide.
Specifically, these were the four Phe derivatives tested. […] Because we were interested in the effects of unnatural amino acids in increasing the specificity of our 20S CP recognition sequence, we moved forward with Phe(4-Cl) and Phe(4-NO2) as Tyr substitutes in our probe structure to create TAS2 and TAS3, respectively (FIG. 1B).

20S CP [4] = assay: purified 20S CP; conditions: 37° C., up to two hours
[5] = 10% v/v human serum in tris buffer; conditions: up to 60 min
20S CP [6] = conditions: cited from earlier work
20S CP [7] = target: T1, 20S CP; assay: Fluorescence hydrolysis of probes by purified 20S CP (plate reader); assay type: biochemical
Description: The peptide recognition sequence used was based on the commercially available 4-mer AMC probe (FIG. 1A), specifically Leu-Leu-Val-Tyr (SEQ ID NO: 1), to generate TAS1 (FIG. 1B). To determine if TAS1 had any enhanced sensitivity, the two probes were compared under the same conditions with purified 20S CP. Briefly, the probes were incubated in triplicate at 10 and 30 μM with 9 nM […] at 37° C. The change in fluorescence was monitored for two hours and the endpoint values were averaged and graphed for comparison (FIG. 1C). Because the two fluorophores have different excitation and emission wavelengths, the two experiments were performed separately but using the same conditions for the plate reader (i.e. gain, number of flashes, settling time, etc.). […] Since, unlike Suc-LLVY-AMC (SEQ ID NO: 1), TAS1 has the potential to have more than one cleavage site which could result in an increase in fluorescence (on either side of Rh110), we confirmed that the increase in signal is only from the recognition and cleavage of the peptide at the Tyr moiety by analyzing the 30 μM TAS1 samples by LC/MS (FIG. 2).
With these new peptide sequences in hand, we returned to incorporating the Rh110-peptoid moiety and to compare the cleavage of TAS1-3 with the 20S CP. We incubated all three probes at various concentrations with 9 nM 20S CP and monitored the change in fluorescence using a microplate reader. […] In order to compare the three probes, we fit a linear regression for the points from 10-60 min for 30 μM of each probe to obtain a rate for the change in fluorescence (Table 1). Of the three, TAS1 was hydrolyzed the quickest, although the slope for TAS2 was similar. […] To confirm that the change in fluorescence was due to amide bond cleavage at the expected site on the peptide, we analyzed the samples at a concentration of 30 μM by LC/MS (FIG. 3).

Compound: CC(C)C[C@@H](C=O)NC(=O)[C@H](CC(C)C)NC(=O)[C@H](CC(C)C)NC(=O)OCc1ccccc1 [MG-132] (Cbz-Leu-Leu-Leu-aldehyde)
IC50 (MM.1R): 264 nM
IC50 (cell viability) [2]: higher than that of MM.1R
Decrease of slope of probe cleavage (A549 cells): ≥ 50%

Compound: Phe(4-Cl): library peptide with Phe(4-Cl) in S1 position replacing Tyr, Ala-Ala dipeptide (LLV[Phe(4-Cl)]AA-NH2; N-terminus assumed; SMILES CC(C)C[C@H](NC(=O)[C@@H](N)CC(C)C)C(=O)N[C@H](C(=O)N[C@@H](Cc1ccc(Cl)cc1)C(=O)N[C@@H](C)C(=O)N[C@@H](C)C(N)=O)C(C)C)
Cleavage by 20S CP compared to human serum [3]: greater than three-times favored cleavage by the 20S CP

Compound: Phe(4-NO2): library peptide with Phe(4-NO2) in S1 position replacing Tyr, Ala-Ala dipeptide (LLV[Phe(4-NO2)]AA-NH2; N-terminus assumed; SMILES CC(C)C[C@H](NC(=O)[C@@H](N)CC(C)C)C(=O)N[C@H](C(=O)N[C@@H](Cc1ccc([N+](=O)[O-])cc1)C(=O)N[C@@H](C)C(=O)N[C@@H](C)C(N)=O)C(C)C)
Cleavage by 20S CP compared to human serum [3]: greater than three-times favored cleavage by the 20S CP

Compound: Phe: library peptide with Phe in S1 position replacing Tyr, Ala-Ala dipeptide (LLVFAA)
Cleavage by 20S CP compared to human serum [3]: greater than three-times favored cleavage by the 20S CP

Compound: Suc-LLVY-{AMC}
cleaved bond (20S CP [6]): Tyr-AMC

Compound: Thi: library peptide with thienylalanine in S1 position replacing Tyr, Ala-Ala dipeptide (LLV[2Thi]AA-NH2; N-terminus assumed; SMILES CC(C)C[C@H](NC(=O)[C@@H](N)CC(C)C)C(=O)N[C@H](C(=O)N[C@@H](Cc1cccs1)C(=O)N[C@@H](C)C(=O)N[C@@H](C)C(N)=O)C(C)C)
Cleavage by 20S CP compared to human serum [3]: near equal cleavage by both
Cleavage of peptide by 20S CP (in words) (20S CP [1]): highest amount of cleavage

The next lines start with results.

Peptide cleaved by 20S CP (20S CP [1]): ~50%
Compound: N[C@@H](CCO)C(=O)O [Hse]

Cleavage of peptide by 20S CP (in words) (20S CP [1]): significantly cleaved
Compound: CNCC(=O)O [Sar]
Cleavage by 20S CP compared to human serum [3]: no significant difference in cleavage; also recorded: near equal cleavage by both

Peptide cleaved by 20S CP (20S CP [1]): ~50%
Compound: CCCC[C@H](N)C(=O)O [norleucine]

Cleavage of peptide by 20S CP (in words) (20S CP [1]): did not accept
Compound: D-Phe: library peptide with D-Phe moiety in S1 position replacing Tyr, Ala-Ala dipeptide (LLV[dF]AA-NH2; N-terminus assumed; SMILES CC(C)C[C@H](NC(=O)[C@@H](N)CC(C)C)C(=O)N[C@H](C(=O)N[C@H](Cc1ccccc1)C(=O)N[C@@H](C)C(=O)N[C@@H](C)C(N)=O)C(C)C)

cleaved bond (20S CP [4]): Tyr-Rh110
Compound: Leu-Leu-Val-Tyr
not cleaved (20S CP [4]): only new peaks formed were the expected cleavage products
cleaved bond [5]: Leu-Leu, first_seen, 30 min; also recorded: Leu-Val, 60 min
not cleaved [5]: no productive cleavage for either 30 or 60 min

Peptide cleaved by 20S CP (20S CP [1]): ~50%
Compound: Nva: library peptide with norvaline in S1 position replacing Tyr, Ala-Ala dipeptide (LLV[Nva]AA-NH2; N-terminus assumed; SMILES CCC[C@H](NC(=O)[C@@H](NC(=O)[C@H](CC(C)C)NC(=O)[C@@H](N)CC(C)C)C(C)C)C(=O)N[C@@H](C)C(=O)N[C@@H](C)C(N)=O)

Rate of Hydrolysis (20S CP [7]; 30 μM probe, 9 nM purified 20S CP, linear regression 10-60 min): 28.1 ΔRFU/min
Background fluorescence level (20S CP [7]; purified 20S CP assay): considerably higher level of background
Compound: TAS3: Rh110-based peptide/peptoid hybrid probe with Phe(4-NO2) as Tyr substitute (LLV[Phe(4-NO2)]; also: Rh110-based probe, place not given here, peptide/peptoid hybrid)
Cleavage products after incubation with 20S CP (LC/MS) (20S CP [7]; 30 μM probe, LC/MS): only produced the expected cleavage products
